Measured values: ChEMBL document CHEMBL1201862, “PubChem BioAssay data set” (2004)
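The compound was tested at five concentrations on cells cultured in 96-well plates, with a 48-hour exposure period. GI50 is the concentration that inhibits growth by half.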 Activity calls are given as the source filed them. Rule as the data show it: active = GI50 up to about 1.1 µM and inactive = higher.

Tests used:
Test in all cases: NCI tumour cell line growth inhibition, 48 h
SF-268 = test system: SF-268
CCRF-CEM = test system: CCRF-CEM
OVCAR-5 = test system: OVCAR-5
RXF 393 = test system: RXF 393
SF-295 = test system: SF-295
SW-620 = test system: SW-620
MOLT-4 = test system: MOLT-4
HL-60 = test system: HL-60
Hs-578T = test system: Hs-578T
OVCAR-4 = test system: OVCAR-4
SK-MEL-2 = test system: SK-MEL-2
M14 = test system: M14
UO-31 = test system: UO-31
SNB-75 = test system: SNB-75
DU-145 = test system: DU-145
SK-MEL-5 = test system: SK-MEL-5
LOX IMVI = test system: LOX IMVI
HCT-116 = test system: HCT-116
HT-29 = test system: HT-29
PC-3 = test system: PC-3
HOP-92 = test system: HOP-92
RPMI-8226 = test system: RPMI-8226
SN12C = test system: SN12C
CAKI-1 = test system: CAKI-1
HCT-15 = test system: HCT-15
NCI-H23 = test system: NCI-H23
TK-10 = test system: TK-10
A549 = test system: A549
HCC 2998 = test system: HCC 2998
SNB-19 = test system: SNB-19
EKVX = test system: EKVX
MDA-MB-231 = test system: MDA-MB-231
NCI/ADR-RES = test system: NCI/ADR-RES
IGROV-1 = test system: IGROV-1
HOP-62 = test system: HOP-62
MCF7 = test system: MCF7
MDA-MB-435 = test system: MDA-MB-435
KM12 = test system: KM12
SK-OV-3 = test system: SK-OV-3
SK-MEL-28 = test system: SK-MEL-28
COLO 205 = test system: COLO 205
OVCAR-3 = test system: OVCAR-3
OVCAR-8 = test system: OVCAR-8
NCI-H460 = test system: NCI-H460
UACC-62 = test system: UACC-62
ACHN = test system: ACHN
K562 = test system: K562
Malme-3M = test system: Malme-3M
UACC-257 = test system: UACC-257
A498 = test system: A498
NCI-H226 = test system: NCI-H226
SF-539 = test system: SF-539
786-0 = test system: 786-0
T47D = test system: T47D
BT-549 = test system: BT-549
U-251 = test system: U-251
MDA-N = test system: MDA-N
NCI-H522 = test system: NCI-H522

CCCCCCSC[C@H](OC(C)=O)[C@@H](OC(C)=O)[C@@H](OC(C)=O)[C@@H](COC(C)=O)OC(C)=O
GI50 (SF-268): > 100 µM (inactive) | GI50 (CCRF-CEM): 43.6 µM (inactive) | GI50 (OVCAR-5): > 100 µM (inactive) | GI50 (RXF 393): > 100 µM (inactive) | GI50 (SF-295): > 100 µM (inactive) | GI50 (SW-620): > 100 µM (inactive) | GI50 (MOLT-4): 26.9 µM (inactive) | GI50 (HL-60): 33.6 µM (inactive) | GI50 (Hs-578T): > 100 µM (inactive) | GI50 (OVCAR-4): > 100 µM (inactive) | GI50 (SK-MEL-2): > 100 µM (inactive) | GI50 (M14): 89.7 µM (inactive) | GI50 (UO-31): > 100 µM (inactive) | GI50 (SNB-75): > 100 µM (inactive) | GI50 (DU-145): > 100 µM (inactive) | GI50 (SK-MEL-5): 23.4 µM (inactive) | GI50 (LOX IMVI): > 100 µM (inactive) | GI50 (HCT-116): 49.9 µM (inactive) | GI50 (HT-29): > 100 µM (inactive) | GI50 (PC-3): 27.7 µM (inactive) | GI50 (HOP-92): > 100 µM (inactive) | GI50 (RPMI-8226): 13.3 µM (inactive) | GI50 (SN12C): > 100 µM (inactive) | GI50 (CAKI-1): > 100 µM (inactive) | GI50 (HCT-15): 62.5 µM | GI50 (NCI-H23): > 100 µM (inactive) | GI50 (TK-10): > 100 µM (inactive) | GI50 (A549): 71.1 µM (inactive) | GI50 (HCC 2998): > 100 µM (inactive) | GI50 (SNB-19): > 100 µM (inactive) | GI50 (EKVX): > 100 µM (inactive) | GI50 (MDA-MB-231): > 100 µM (inactive) | GI50 (NCI/ADR-RES): > 100 µM (inactive) | GI50 (IGROV-1): 83.8 µM (inactive) | GI50 (HOP-62): > 100 µM (inactive) | GI50 (MCF7): 85.5 µM (inactive) | GI50 (MDA-MB-435): > 100 µM (inactive) | GI50 (KM12): 41.9 µM (inactive) | GI50 (SK-OV-3): > 100 µM (inactive) | GI50 (SK-MEL-28): > 100 µM (inactive) | GI50 (COLO 205): 64.9 µM (inactive) | GI50 (OVCAR-3): 80.9 µM (inactive) | GI50 (OVCAR-8): > 100 µM (inactive) | GI50 (NCI-H460): > 100 µM (inactive) | GI50 (UACC-62): > 100 µM (inactive) | GI50 (ACHN): > 100 µM (inactive) | GI50 (K562): 43.9 µM (inactive) | GI50 (Malme-3M): > 100 µM (inactive) | GI50 (UACC-257): > 100 µM (inactive) | GI50 (A498): > 100 µM (inactive) | GI50 (NCI-H226): > 100 µM (inactive) | GI50 (SF-539): > 100 µM (inactive) | GI50 (786-0): > 100 µM (inactive) | GI50 (T47D): 38.6 µM (inactive) | GI50 (BT-549): > 100 µM (inactive) | GI50 (U-251): > 100 µM (inactive) | GI50 (MDA-N): > 100 µM (inactive)

O=C1/C(=C/c2ccc(Cl)cc2)N=C(c2ccccc2)N1/N=C/c1ccccc1O
GI50 (SF-268): 14.8 µM (inactive) | GI50 (CCRF-CEM): 2.11 µM (inactive) | GI50 (OVCAR-5): 12.7 µM (inactive) | GI50 (RXF 393): 11.4 µM (inactive) | GI50 (SF-295): 11.9 µM (inactive) | GI50 (SW-620): > 100 µM (inactive) | GI50 (MOLT-4): 12.6 µM (inactive) | GI50 (HL-60): 28.1 µM (inactive) | GI50 (Hs-578T): 36.4 µM (inactive) | GI50 (OVCAR-4): 4.57 µM (inactive) | GI50 (SK-MEL-2): 17.1 µM (inactive) | GI50 (M14): 2.84 µM (inactive) | GI50 (UO-31): 11.6 µM (inactive) | GI50 (SNB-75): 6.31 µM (inactive) | GI50 (DU-145): 21 µM (inactive) | GI50 (SK-MEL-5): 15.1 µM (inactive) | GI50 (LOX IMVI): 13.2 µM (inactive) | GI50 (HCT-116): 2.44 µM (inactive) | GI50 (HT-29): 21.1 µM (inactive) | GI50 (PC-3): 10.3 µM (inactive) | GI50 (HOP-92): 11.5 µM (inactive) | GI50 (RPMI-8226): 6.89 µM (inactive) | GI50 (SN12C): 23.4 µM (inactive) | GI50 (CAKI-1): 7.6 µM (inactive) | GI50 (HCT-15): 30.9 µM | GI50 (NCI-H23): > 100 µM (inactive) | GI50 (TK-10): 1.68 µM (inactive) | GI50 (A549): 19.2 µM (inactive) | GI50 (SNB-19): > 100 µM (inactive) | GI50 (EKVX): 4.66 µM (inactive) | GI50 (MDA-MB-231): 15.1 µM (inactive) | GI50 (NCI/ADR-RES): 18.2 µM (inactive) | GI50 (IGROV-1): 8.26 µM (inactive) | GI50 (HOP-62): 1.87 µM (inactive) | GI50 (MCF7): 13.9 µM (inactive) | GI50 (MDA-MB-435): 26.7 µM (inactive) | GI50 (KM12): 12.9 µM (inactive) | GI50 (SK-OV-3): 5.61 µM (inactive) | GI50 (SK-MEL-28): 15.1 µM (inactive) | GI50 (COLO 205): 16.3 µM (inactive) | GI50 (OVCAR-3): 9.1 µM (inactive) | GI50 (OVCAR-8): 5.51 µM (inactive) | GI50 (NCI-H460): 18 µM (inactive) | GI50 (UACC-62): 13.9 µM (inactive) | GI50 (ACHN): 5.05 µM (inactive) | GI50 (K562): 9.12 µM (inactive) | GI50 (Malme-3M): 1.98 µM (inactive) | GI50 (UACC-257): > 100 µM (inactive) | GI50 (NCI-H226): 19.2 µM (inactive) | GI50 (NCI-H522): 13.4 µM (inactive) | GI50 (SF-539): 10.9 µM (inactive) | GI50 (T47D): 6.27 µM (inactive) | GI50 (BT-549): 16.4 µM (inactive) | GI50 (U-251): 5.27 µM (inactive) | GI50 (MDA-N): 69.5 µM (inactive)

COc1ccc(CC2Cc3ccccc3CCN2)cc1OC (stereo unspecified)
GI50 (SF-268): > 50 µM (inactive) | GI50 (CCRF-CEM): 28.5 µM (inactive) | GI50 (OVCAR-5): 38.2 µM (inactive) | GI50 (RXF 393): 12 µM (inactive) | GI50 (SF-295): > 50 µM (inactive) | GI50 (SW-620): > 50 µM (inactive) | GI50 (MOLT-4): 20.3 µM (inactive) | GI50 (HL-60): 13.2 µM (inactive) | GI50 (Hs-578T): 23.8 µM (inactive) | GI50 (OVCAR-4): > 50 µM (inactive) | GI50 (SK-MEL-2): > 50 µM (inactive) | GI50 (M14): 16.2 µM (inactive) | GI50 (UO-31): 11.8 µM (inactive) | GI50 (SNB-75): 31.1 µM (inactive) | GI50 (DU-145): > 50 µM (inactive) | GI50 (LOX IMVI): 38.5 µM (inactive) | GI50 (HCT-116): 20.9 µM (inactive) | GI50 (HT-29): 13.8 µM (inactive) | GI50 (PC-3): > 50 µM (inactive) | GI50 (HOP-92): 17.9 µM (inactive) | GI50 (RPMI-8226): 18.3 µM (inactive) | GI50 (SN12C): > 50 µM (inactive) | GI50 (CAKI-1): > 50 µM (inactive) | GI50 (HCT-15): > 50 µM | GI50 (NCI-H23): > 50 µM (inactive) | GI50 (A549): 29.8 µM (inactive) | GI50 (HCC 2998): > 50 µM (inactive) | GI50 (SNB-19): > 50 µM (inactive) | GI50 (EKVX): 26.2 µM (inactive) | GI50 (MDA-MB-231): 44.5 µM (inactive) | GI50 (NCI/ADR-RES): > 50 µM (inactive) | GI50 (IGROV-1): 23.9 µM (inactive) | GI50 (HOP-62): 40.5 µM (inactive) | GI50 (MCF7): > 50 µM (inactive) | GI50 (MDA-MB-435): > 50 µM (inactive) | GI50 (KM12): > 50 µM (inactive) | GI50 (SK-OV-3): > 50 µM (inactive) | GI50 (SK-MEL-28): 19.3 µM (inactive) | GI50 (COLO 205): 11.3 µM (inactive) | GI50 (OVCAR-3): > 50 µM (inactive) | GI50 (OVCAR-8): > 50 µM (inactive) | GI50 (NCI-H460): 37.4 µM (inactive) | GI50 (UACC-62): > 50 µM (inactive) | GI50 (K562): 20 µM (inactive) | GI50 (Malme-3M): 25.5 µM (inactive) | GI50 (UACC-257): 21.6 µM (inactive) | GI50 (A498): > 50 µM (inactive) | GI50 (NCI-H226): 12.1 µM (inactive) | GI50 (SF-539): 37.8 µM (inactive) | GI50 (786-0): 26.3 µM (inactive) | GI50 (T47D): 46.5 µM (inactive) | GI50 (BT-549): > 50 µM (inactive) | GI50 (U-251): > 50 µM (inactive) | GI50 (MDA-N): > 50 µM (inactive)
